Measurements published in ChEMBL document CHEMBL1201862, “PubChem BioAssay data set” (2004).
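The compound was tested at five concentrations on cells cultured in 96-well plates, with a 48-hour exposure period. GI50 marks 50% less growth.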 Active and inactive are the calls of the source. No stated cut-off is given here; in the data, active = GI50 up to about 1.1 µM and inactive = higher.

Assays:
Assay in all cases: NCI-60 cell line screen, 48 h
MDA-N = tested on: MDA-N
SK-OV-3 = tested on: SK-OV-3
K562 = tested on: K562
M14 = tested on: M14
HOP-92 = tested on: HOP-92
ACHN = tested on: ACHN
DU-145 = tested on: DU-145
SR = tested on: SR
HOP-62 = tested on: HOP-62
TK-10 = tested on: TK-10
Malme-3M = tested on: Malme-3M
CCRF-CEM = tested on: CCRF-CEM
KM12 = tested on: KM12
LOX IMVI = tested on: LOX IMVI
RPMI-8226 = tested on: RPMI-8226
BT-549 = tested on: BT-549
NCI-H23 = tested on: NCI-H23
CAKI-1 = tested on: CAKI-1
OVCAR-5 = tested on: OVCAR-5
HL-60 = tested on: HL-60

Compound	GI50 (MDA-N)	GI50 (SK-OV-3)	GI50 (K562)	GI50 (M14)	GI50 (HOP-92)	GI50 (ACHN)	GI50 (DU-145)	GI50 (SR)	GI50 (HOP-62)	GI50 (TK-10)	GI50 (Malme-3M)	GI50 (CCRF-CEM)	GI50 (KM12)	GI50 (LOX IMVI)	GI50 (RPMI-8226)	GI50 (BT-549)	GI50 (NCI-H23)	GI50 (CAKI-1)	GI50 (OVCAR-5)	GI50 (HL-60)
Nc1n[nH]c2nc3ccc(C(F)(F)F)cc3nc12	35.3 µM (inactive)	20.5 µM (inactive)	42.7 µM (inactive)	33.3 µM (inactive)	25.1 µM (inactive)	25.1 µM (inactive)	16.7 µM (inactive)	49.4 µM (inactive)	18.5 µM (inactive)	32.4 µM (inactive)	71.6 µM (inactive)	17 µM (inactive)	57.1 µM (inactive)	18.6 µM (inactive)	62.2 µM (inactive)	23.1 µM (inactive)	22.2 µM (inactive)	31.5 µM (inactive)	25.6 µM (inactive)	
CC(=O)C(=NNc1ccc(-n2c(C)nc3ccccc3c2=O)cc1)C(C)=O	> 100 µM (inactive)	> 100 µM (inactive)	> 100 µM (inactive)	> 100 µM (inactive)	> 100 µM (inactive)	> 100 µM (inactive)	> 100 µM (inactive)	> 100 µM (inactive)	> 100 µM (inactive)	> 100 µM (inactive)		> 100 µM (inactive)	55 µM (inactive)	> 100 µM (inactive)	30 µM (inactive)	> 100 µM (inactive)	> 100 µM (inactive)	> 100 µM (inactive)	> 100 µM (inactive)	> 100 µM (inactive)
O=[N+]([O-])c1cccc(Cl)c1Oc1ccc(S(=O)(=O)N/C(=N\O)Nc2ccc(Cl)cc2)cc1	12.7 µM (inactive)	17.1 µM (inactive)	14.3 µM (inactive)	14.2 µM (inactive)	4.76 µM (inactive)	14.1 µM (inactive)	15.5 µM (inactive)	6.14 µM (inactive)	20.2 µM (inactive)	14.8 µM (inactive)	13.1 µM (inactive)	2.55 µM (inactive)	15.9 µM (inactive)	14.3 µM (inactive)	6.01 µM (inactive)	14.5 µM (inactive)	15.5 µM (inactive)	9.46 µM (inactive)	17 µM (inactive)	
COc1ccc(N2C=Nn3c(nc4sc5c(c4c3=O)CCCC5)C2)cc1	> 100 µM (inactive)	> 100 µM (inactive)	> 100 µM (inactive)	32.5 µM (inactive)	12.2 µM (inactive)	12.1 µM (inactive)	> 100 µM (inactive)	> 100 µM (inactive)	3.09 µM (inactive)	77.1 µM (inactive)	18.1 µM (inactive)	> 100 µM (inactive)	> 100 µM (inactive)	33.6 µM (inactive)	> 100 µM (inactive)	20.7 µM (inactive)	26.1 µM (inactive)	40.4 µM (inactive)	32.4 µM (inactive)	
CCC(C)(O)c1cnc(CC(C)C)c(=O)n1O (stereo unspecified)	73.5 µM (inactive)	87.5 µM (inactive)	18.5 µM (inactive)		85.9 µM (inactive)	59.7 µM (inactive)	> 100 µM (inactive)	17.2 µM (inactive)	42.9 µM (inactive)	97.7 µM (inactive)		29.2 µM (inactive)	37.7 µM (inactive)	33.8 µM (inactive)	11.5 µM (inactive)	> 100 µM (inactive)	78.2 µM (inactive)	43.8 µM (inactive)	0.597 µM (active)	
CC(C)=C1C(=O)c2c(Cl)sc(Cl)c2C1=O	22.6 µM (inactive)	> 100 µM (inactive)	37.6 µM (inactive)	19 µM (inactive)	22.6 µM (inactive)	21 µM (inactive)	22.4 µM (inactive)	27.2 µM (inactive)	42.4 µM (inactive)	32.5 µM (inactive)	19 µM (inactive)	26.1 µM (inactive)	16.5 µM (inactive)	18.2 µM (inactive)		22 µM (inactive)	17.8 µM (inactive)	18.3 µM (inactive)	> 100 µM (inactive)	31.3 µM (inactive)
O=C(C[n+]1ccc2ccccc2c1)c1ccc2ccc3ccccc3c2c1	0.647 µM (active)	6.82 µM (inactive)	0.151 µM (active)	2.22 µM (inactive)	1.62 µM (inactive)	2.22 µM (inactive)	6.19 µM (inactive)	0.406 µM (active)	5.94 µM (inactive)	1.4 µM (inactive)	7.71 µM (inactive)	0.815 µM (active)	1.33 µM (inactive)	1.08 µM (active)	0.129 µM (active)	11.2 µM (inactive)	2.38 µM (inactive)	4.9 µM (inactive)	5.07 µM (inactive)	
